Reference: US9949980B2, “Drugs to prevent HPV infection” (Wisconsin Alumni Research Foundation, priority 2008, dated 2018)
pIC50: −log10 of the molar value. Like-named read-outs stand apart in the source and are kept apart here.

Key:
HaCaT cells = format: cell-based, human; details: for CD50 (cytotoxicity): human, 76 h
Text: (§1) FIG. 2. Dose dependence inhibition of HPV16 pseudovirus infection in a human keratinocyte cell line (HaCaT). Graphed are the dose-dependent effects of lead compounds shown in Table 2 on the efficiency of infection by HPV16 pseudovirus scored by measuring luciferase reporter activity (squares) as well as their effects on cell viability (circles).
(§2) All but one of these compounds (6 is […]) were repurchased and subjected to a tertiary screen performed in the human keratinocyte cell line, HaCaT, and using HPV16 pseudoviruses encoding a third reporter gene, firefly luciferase, transcribed from a different, E1a, promoter.
(§3) At 4 hours prior to exposure of cell to pseudoviruses, compounds were added to plates in 1% DMSO final concentration at the indicated amounts. Four hours later, 10 multiplicity of infection (M.O.I.) units of HPV16 pseudovirus carrying the plasmid LucF was added to the cells. 72 hours later, cells were lysed and luciferase assays performed using the Luciferase Assay System (Promega Cat. #E1501). For infection studies with HPV11 and HPV31 pseudoviruses, 200 virus genome equivalents (vge) of virus per cell were used. Cell viability was assessed in parallel plates by Luminescent Cell Viability Assay (Promega Cat. #G7571).

HPV31 pseudoviruses = assay: HPV31 pseudovirus infection in HaCaT cells; format: cell-based
Protocol: (§4) FIG. 4. Compounds 13 and 14 can inhibit infection by multiple anogenital HPVs. Shown are results from infection experiments in HaCaT cells monitoring the efficiency of infection by HPV16, HPV11 and HPV31 pseudovirus carrying the firefly luciferase gene in the absence (0 μM, vehicle only) or increasing concentrations (0.1 to 100 μM) of Compound 13 or 14. The Y axis is the relative efficiency of infection (squares) or cell viability (circles) as a function of drug concentration (X axis). All data points represent the average of values from triplicate samples. […] Data for HPV16 is the also plotted in FIG. 2.
(§5) Compounds 13 and 14: inhibition of infection by multiple papillomavirus genotypes. The goal of this study is to identify compounds that inhibit all sexually transmitted HPVs. For this reason, we monitored the ability of Compounds 13 and 14 to inhibit infection of two additional papillomavirus pseudoviruses that were generated using the capsid proteins of two other sexually transmitted HPVs, high risk HPV31 and low risk HPV11. […]
(§6) At 4 hours prior to exposure of cell to pseudoviruses, compounds were added to plates in 1% DMSO final concentration at the indicated amounts. […] Cell viability was assessed in parallel plates by Luminescent Cell Viability Assay (Promega Cat. #G7571).

HPV16 pseudoviruses [1] = assay: microbe, parasite or virus in culture; format: cell-based; details: Human papillomavirus 16, HEK-293T, 48 h
How it was run: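 Viability was read by CellTiter Glo luminescence on the same wells used for the SEAP infection read-out, after 48 hrs further incubation.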

HPV16 pseudovirus [2] = assay: Luciferase assay: HPV16 pseudovirus with renilla luciferase reporter (HPV16wpA-RL); details: renilla luciferase reporter behind HPV16 promoter
Protocol: The protocol for the secondary screen was identical to that of the primary screen with the exception that all volumes were scaled up by a factor of four. RL activity was measured using the Renilla Luciferase Assay System (Promega).

HPV16 pseudoviruses [3] = assay: Virus particle subcellular localization, fluorescently labeled HPV16 pseudovirus; format: cell-based; details: 24 hours post infection
Protocol: FIG. 6. Localization of HPV16 pseudovirions 24 hours post infection. Shown are representative confocal images of cells exposed to cyberXX-labeled HPV16 pseudovirus in the absence (FIG. 6B) or presence of Compound 13 (FIG. 6C) and Compound 14 (FIG. 6D). FIG. 6A is a mock infection negative control. Nuclei are stained.
Mechanism of action of Compounds 13 and 14. To begin to assess the mechanism by which Compounds 13 and 14 inhibit HPV infection, we performed fluorescent microscopy studies on cells treated or not treated with Compounds 13 and 14 that were exposed to HPV16 pseudoviruses in which the encapsidated DNA was labeled with a fluorescent intercalating agent. […] At 24 hours post infection we observed a typical perinuclear staining for the fluorescently labeled HPV16 pseudoviruses in both the untreated and drug treated cells.
Virus particle sub cellular localization studies: A target DNA was labeled with Syto-14 (Invitrogen, 25 NM) in 293FT cells before virus was being packaged. HaCaT cells were infected with the labeled HPV pseudovirus for 24 hours, harvested, and fixed with 1% formaldehyde for 30 minutes, followed by permeabilization with 0.2% Triton X-100 for 10 minutes. Cells were blocked with Image-IT FX Signal Enhancer (Invitrogen) for 30 minutes and incubated with rabbit anti-lamin B1 (ab16048, Abcam) antibodies. […] Virus localization was determined by fluorescence.

HPV11 pseudoviruses = assay: HPV11 pseudovirus infection in HaCaT cells; format: cell-based
Protocol: as §4, §5, §6

HPV16 pseudovirus [4] = assay: microbe, parasite or virus in culture; format: cell-based; details: Human papillomavirus 16, HaCaT, read-out: IC50, HPV16 pseudovirus infection
Text: as §1, §2
The infectivity assay was repeated at least twice and each assay was performed in replicate (n≥3).
as §3

in vitro = details: human, Viability (CelTiter Glow)
[5] = read-out: Infectivity (SEAP Activity), 3 μM HTS standard concentration, 293T cells, 48 hrs
[6] = read-out: Infectivity vs. viability, 3 μM HTS standard concentration, ratio infectivity/viability
[7] = read-out: Primary HTS SEAP vs Viability, Table 2, first pair of columns (c2)
[8] = read-out: Primary HTS SEAP vs Viability, Table 2, second pair of columns (c4)

| SMILES | Toxicity / cytotoxicity in words (HaCaT cells) | CD50 (cytotoxicity) (HaCaT cells) [µM] | pIC50 (HPV31 pseudoviruses) | activity at 3 µM (HPV16 pseudoviruses [1]; [5]) [%] | activity at 3 µM (HPV16 pseudoviruses [1]; [6]) [%] | activity at 3 µM (HPV16 pseudoviruses [1]; [7]) [%] | activity at 3 µM (HPV16 pseudoviruses [1]; [8]) [%] | Luciferase assay RL % Average (HPV16 pseudovirus [2]) [%] | Step at which the compound inhibits infection (entry of labeled pseudovirus) (HPV16 pseudoviruses [3]) | pIC50 (HPV11 pseudoviruses) | pIC50 (HPV16 pseudovirus [4]) | viability at 52 h, 3 μM (in vitro) [%] |
| --- | --- | --- | --- | --- | --- | --- | --- | --- | --- | --- | --- | --- |
| CCCn1c2ccccc2c2nnc(SC(CC)C(=O)Nc3ccc(Cl)cn3)nc21 (stereo not drawn) [Compound 13, N-(5-chloro-2-pyridinyl)-2-[(5-propyl-5H-[1,2,4]triazino[5,6-b]indol-3-yl)thio]butanamide] | little to no cytotoxicity | 25 | 6.82 | 21.8 | 21.4 | 8.25 | 35.4 | 150.17 | function post-entry | > 7.00 | 6.10 | 102 |
| Cc1cc(C(c2ccc(F)cc2)c2cc(C)c(NC(=O)c3ccccc3)c(C)c2)cc(C)c1NC(=O)c1ccccc1 [Compound 14, N,N′[[(4-fluorophenyl)methylene]bis(2,6-dimethyl-4,1-phenylene)]dibenzamide] | little to no cytotoxicity | > 100 | > 7.00 | 51 | 46.5 | 65.4 | 36.6 | 37.54 | function post-entry | > 7.00 | 6.70 | 110 |
